In US20240059711A1, “Cereblon Ligands and Uses Thereof” (REGENTS OF THE UNIVERSITY OF MICHIGAN, priority 2022, published 2024):

Legend:
[1] = target: GST-tagged wild-type human CRBN protein (Homo sapiens (Human), UniProt Q96SW2); test: Cereblon binding assay (CRBN TR-FRET, Cisbio Cereblon Binding Kit); conditions: XL665-labelled Thalidomide tracer, about 3 hours at room temperature
Procedure: The binding to cereblon (CRBN) was determined using the Cereblon Binding Kit (Cisbio, #64BDCRBNPEG) following the manufacturer's instruction. Briefly, serially diluted compounds were incubated with GST-tagged wild-type human CRBN protein, XL665-labelled Thalidomide and Europium Cryptate labelled GST antibody at room temperature for about 3 hours. Time Resolved Fluorescence Resonance Energy Transfer (TR-FRET) measurements were acquired on a CALRIOstar plate reader with MARS data analysis software (BMG Labtech), with the following settings: 665/10 nm and 620/10 nm emission, 60 μs delay and 400 μs integration. The TR-FRET ratio was taken as the 665/620 nm intensity ratio.

ER = ER (Homo sapiens (Human), UniProt P03372); test: In-Cell Western (ICW) ER degradation assay in MCF-7 and T47D cell lines; assay type: cell-based; conditions: ER level by In-Cell Western, 16 hrs treatment; MCF-7 and T47D described, cell line not given
Chain of ER (P03372 whole entry): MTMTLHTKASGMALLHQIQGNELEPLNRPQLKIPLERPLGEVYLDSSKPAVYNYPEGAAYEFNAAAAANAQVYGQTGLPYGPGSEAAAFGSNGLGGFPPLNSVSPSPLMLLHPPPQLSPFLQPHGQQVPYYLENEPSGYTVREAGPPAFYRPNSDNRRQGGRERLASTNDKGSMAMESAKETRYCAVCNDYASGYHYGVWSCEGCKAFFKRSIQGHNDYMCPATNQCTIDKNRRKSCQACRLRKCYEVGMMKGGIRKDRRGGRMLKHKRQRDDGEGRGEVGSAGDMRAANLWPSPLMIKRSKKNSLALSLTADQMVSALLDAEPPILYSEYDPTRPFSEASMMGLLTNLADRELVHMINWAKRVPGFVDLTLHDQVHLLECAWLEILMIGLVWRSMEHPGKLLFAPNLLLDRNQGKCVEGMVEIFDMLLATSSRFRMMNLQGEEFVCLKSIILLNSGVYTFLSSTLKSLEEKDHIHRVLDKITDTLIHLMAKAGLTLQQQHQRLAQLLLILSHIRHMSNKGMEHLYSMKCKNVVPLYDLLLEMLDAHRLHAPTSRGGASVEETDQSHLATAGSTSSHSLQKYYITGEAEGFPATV
Procedure: Subsequently, cells were blocked with Intercept (PBS) Blocking Buffer (Li-COR, Odyssey Blocking Buffer), and were stained with ER (1:500, Cell signaling) primary antibody for overnight at cold room. • Day 4: Remove the buffer, add IRDye 800CW Goat anti-Rabbit IgG Secondary Antibody (1:2000) and CellTag 700 Stain (1:500) in Intercept (PBS) Blocking Buffer. Finally, cell plate is placed in incubator to dry. Image and signal were captured on Odyssey® DLx Imaging System.
In-cell western blot analysis. a. seed cells in black-sided/clear bottom 96- or 384-well plates at 40,000 or 10,000 cells/well, overnight; b. add diluted compounds (final 0.5% DMSO), 16 hours. 16 h later, remove medium, add 100 μL or 25 μL of 3.7-4.0% formaldehyde (PBS:FA=9:1), RT 20 min, no shaking; c. wash with PBS, and permeabilized with 100 μL or 25 μL/well of 1×PBS+0.1% Triton X-100 10 minutes; d. block with 100 μL or 25 μL Licor blocking buffer (Li-Cor), RT 1 h, moderate shaking; d. Add 100 μL or 25 μL of anti-ER (cs-8644, 1:500-1,000)+GAPDH (Millipore MAB374, 1:1000) in Block+0.05% Tween 20. RT 2 h, gentle shaking.
Negative control: cells plus secondary antibodies (no primary antibodies); e. wash ×4 with PBS+0.05-0.1% Tween 20, gentle shaking; f. anti-rabbit-680 and anti-mouse-800 (both 1:1000 in LiCor block+0.05% Tween20, RT 1 h, gentle shaking, no light. LI-COR: 0.2% to reduce background; g. wash ×4 with PBS+0.05% Tween 20, gentle shaking; h. add 100 μL or 25 μL of PBS to each well and read on CLX plate reader. The relative ER percentage in treated cells were obtained by comparing the values of treated wells to those in untreated and DMSO-treated wells as 100%.

T47D cell line = test: Cell growth inhibition in T47D cell line; assay type: cell-based; conditions: Homo sapiens

Chain of GST-tagged wild-type human CRBN protein (Q96SW2 whole entry): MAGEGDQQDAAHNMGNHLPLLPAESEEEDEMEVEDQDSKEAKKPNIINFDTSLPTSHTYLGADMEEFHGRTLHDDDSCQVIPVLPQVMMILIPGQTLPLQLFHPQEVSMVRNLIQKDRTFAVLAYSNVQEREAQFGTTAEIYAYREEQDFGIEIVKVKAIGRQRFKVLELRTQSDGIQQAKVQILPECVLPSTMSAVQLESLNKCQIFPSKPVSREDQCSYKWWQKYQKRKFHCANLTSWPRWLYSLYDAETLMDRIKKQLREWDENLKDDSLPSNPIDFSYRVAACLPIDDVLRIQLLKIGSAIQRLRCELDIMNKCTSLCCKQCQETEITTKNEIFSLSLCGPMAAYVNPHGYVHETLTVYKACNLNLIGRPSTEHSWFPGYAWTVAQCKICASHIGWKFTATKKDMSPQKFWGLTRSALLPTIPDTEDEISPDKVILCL

Q: How did the IC50 [1] turn out when `O=C1CC[C@H](N2Cc3c(ccc4c3OCC(COCc3ccccc3)O4)C2=O)C(=O)N1` (stereo in doubt) [Compound B1, (S)-3-((S)-3-((benzyloxy)methyl)-7-oxo-2,3,7,9-tetrahydro-8H-[1,4]dioxino[2,3-e]isoindol-8-yl)piperidine-2,6-dione] was run?
A: Its IC50 is 300 nM.

Q: How did the IC50 [1] turn out when `O=C1CC[C@H](N2Cc3c(ccc4c3OCC(CO)O4)C2=O)C(=O)N1` (stereo in doubt) [Compound B2, (S)-3-((S)-3-(hydroxymethyl)-7-oxo-2,3,7,9-tetrahydro-8H-[1,4]dioxino[2,3-e]isoindol-8-yl)piperidine-2,6-dione] was run?
A: The IC50 was 410 nM.

Q: Which IC50 [1] does the source give for `O=C1CC[C@H](N2Cc3c(ccc4c3OC[C@H](COCc3ccccc3)O4)C2=O)C(=O)N1` [Compound B3, (S)-3-((S)-3-((benzyloxy)methyl)-7-oxo-2,3,7,9-tetrahydro-8H-[1,4]dioxino[2,3-e]isoindol-8-yl)piperidine-2,6-dione] here?
A: The IC50 was 120 nM.

Q: For `O=C1CC[C@H](N2Cc3c(ccc4c3OC[C@H](CO)O4)C2=O)C(=O)N1` [Compound B4, (S)-3-((S)-3-(hydroxymethyl)-7-oxo-2,3,7,9-tetrahydro-8H-[1,4]dioxino[2,3-e]isoindol-8-yl)piperidine-2,6-dione], which IC50 [1] is on record?
A: Its IC50 is 310 nM.

Q: Which IC50 [1] does the source give for `O=C1CCC(N2Cc3c(ccc4c3OC[C@H](COCc3ccccc3)N4)C2=O)C(=O)N1` (stereo partly drawn) [Compound B5, 3-((S)-3-((benzyloxy)methyl)-7-oxo-3,4,7,9-tetrahydro-[1,4]oxazino[2,3-e]isoindol-8(2H)-yl)piperidine-2,6-dione] here?
A: The IC50 was 120 nM.

Q: `O=C1CC[C@H](N2Cc3c(ccc4c3O[C@@H](CO)CO4)C2=O)C(=O)N1` [Compound B6, (S)-3-((S)-2-(hydroxymethyl)-7-oxo-2,3,7,9-tetrahydro-8H-[1,4]dioxino[2,3-e]isoindol-8-yl)piperidine-2,6-dione] was tested. Which IC50 [1] did it give?
A: Its IC50 is 540 nM.

Q: For `O=C1CC[C@H](N2Cc3c(ccc4c3O[C@H](CO)CO4)C2=O)C(=O)N1` [Compound B7, (S)-3-((R)-2-(hydroxymethyl)-7-oxo-2,3,7,9-tetrahydro-8H-[1,4]dioxino[2,3-e]isoindol-8-yl)piperidine-2,6-dione], which IC50 [1] is on record?
A: The IC50 was 510 nM.

Q: `O=C1CCC(N2Cc3c(ccc4c3O[C@H](CO)CO4)C2=O)C(=O)N1` (stereo partly drawn) [Compound B8, 3-((R)-2-(hydroxymethyl)-7-oxo-2,3,7,9-tetrahydro-8H-[1,4]dioxino[2,3-e]isoindol-8-yl)piperidine-2,6-dione] was tested. Which IC50 [1] did it give?
A: The IC50 was 1000 nM.

Q: Which IC50 [1] does the source give for `O=C1CC[C@H](N2Cc3cc4c(cc3C2=O)OC[C@H](CO)O4)C(=O)N1` [Compound B11, (S)-3-((S)-2-(hydroxymethyl)-6-oxo-2,3,6,8-tetrahydro-7H-[1,4]dioxino[2,3-f]isoindol-7-yl)piperidine-2,6-dione] here?
A: The IC50 was 3100 nM.

Q: With `O=C1CC[C@H](N2Cc3cc4c(cc3C2=O)OC[C@H](COCc2ccccc2)O4)C(=O)N1` [Compound B12, (S)-3-((S)-2-((benzyloxy)methyl)-6-oxo-2,3,6,8-tetrahydro-7H-[1,4]dioxino[2,3-f]isoindol-7-yl)piperidine-2,6-dione] as the molecule, how does the IC50 [1] read?
A: The IC50 was 3000 nM.

Q: How did the IC50 [1] turn out when `O=C1CCC(N2C(=O)c3cc4c(cc3C2=O)O[C@@H](COCc2ccccc2)CO4)C(=O)N1` (stereo partly drawn) [Compound B13, (2S)-2-((benzyloxy)methyl)-7-(2,6-dioxopiperidin-3-yl)-2,3-dihydro-6H-[1,4]dioxino[2,3-f]isoindole-6,8(7H)-dione] was run?
A: The IC50 was 3100 nM.

Q: `O=C1CCC(N2C(=O)c3cc4c(cc3C2=O)O[C@@H](COCc2ccccc2)CO4)C(=O)N1` (stereo partly drawn) [Compound B14, (2S)-2-((benzyloxy)methyl)-7-(2,6-dioxopiperidin-3-yl)-2,3-dihydro-6H-[1,4]dioxino[2,3-f]isoindole-6,8(7H)-dione] was tested. Which IC50 [1] did it give?
A: The IC50 was 5160 nM.

Q: Which IC50 [1] does the source give for `O=C1CCC(N2C(=O)c3cc4c(cc3C2=O)OC(CO)CO4)C(=O)N1` (stereo not shown) [Compound B15, 7-(2,6-dioxopiperidin-3-yl)-2-(hydroxymethyl)-2,3-dihydro-6H-[1,4]dioxino[2,3-f]isoindole-6,8(7H)-dione] here?
A: The IC50 was 7890 nM.

Q: `O=C1CC[C@H](N2Cc3c(ccc4c3OC[C@@H](CN3CCC5(CC3)CCN(c3ccc([C@@H]6c7ccc(O)cc7CC[C@@H]6c6ccccc6)cc3)CC5)O4)C2=O)C(=O)N1` [THP-B370] was tested. Which DC50 (ER) did it give?
A: The DC50 was greater than 100 nM.

Q: And the IC50 (T47D cell line)?
A: Its IC50 is 1 to 10 nM.

Q: How did the DC50 (ER) turn out when `O=C1CC[C@H](N2Cc3c(ccc4c3OC[C@@H](CN3CC5(CCN(c6ccc([C@@H]7c8ccc(O)cc8CC[C@@H]7c7ccccc7)cc6)CC5)C3)O4)C2=O)C(=O)N1` [THP-B375] was run?
A: The DC50 was 10 to 100 nM.

Q: What about the IC50 (T47D cell line) of the same molecule?
A: The IC50 was less than 1 nM.

Q: For `O=C1CC[C@H](N2Cc3c(ccc4c3OC[C@H](CN3CCC5(CC3)CCN(c3ccc([C@@H]6c7ccc(O)cc7CC[C@@H]6c6ccccc6)cc3)CC5)O4)C2=O)C(=O)N1` [THP-B387], which DC50 (ER) is on record?
A: The DC50 was greater than 100 nM.

Q: Which results are given for `O=C1CCC(N2Cc3cc4c(cc3C2=O)OC[C@H](CN2CCC3(CC2)CCN(c2ccc([C@@H]5c6ccc(O)cc6CC[C@@H]5c5ccccc5)cc2)CC3)O4)C(=O)N1` (stereo partly drawn) [THP-B391, 3-((S)-2-((9-(4-((1R,2S)-6-hydroxy-2-phenyl-1,2,3,4-tetrahydronaphthalen-1-yl)phenyl)-3,9-diazaspiro[5.5]undecan-3-yl)methyl)-6-oxo-2,3,6,8-tetrahydro-7H-[1,4]dioxino[2,3-f]isoindol-7-yl)piperidine-2,6-dione]?
A: DC50 (ER): > 100 nM; IC50 (T47D cell line): 1 to 10 nM

Q: `O=C1CC[C@H](N2Cc3c(ccc4c3OC[C@H](CN3CCC5(CC3)CCN(c3ccc([C@@H]6c7ccc(O)cc7CC[C@@H]6c6ccccc6)cc3)CC5)O4)C2=O)C(=O)N1` [THP-B392] was tested. Which IC50 (T47D cell line) did it give?
A: Its IC50 is 1 to 10 nM.

Q: Which IC50 (T47D cell line) does the source give for `O=C1CC[C@H](N2Cc3c(ccc4c3OC[C@H](CN3CC5(CCN(c6ccc([C@@H]7c8ccc(O)cc8CC[C@@H]7c7ccccc7)cc6)CC5)C3)O4)C2=O)C(=O)N1` [THP-B393] here?
A: The IC50 was less than 1 nM.
